Here are results for 1 molecule from publication PMC7151078, “A Novel NMDA Receptor Antagonist Protects against Cognitive Decline Presented by Senescent Mice” (Pharmaceutics, 2020).

Holding throughout (assay type): in vitro ADME
Data set [1] addresses T1, CYP3A4 (Homo sapiens, UniProt P08684).
T1 construct: host or cells: insect cell microsomes
Nature of the data set: Cytochrome inhibition, fluorescent detection (7-BFC and DBF substrates). As to the method: (§1) To screen the inhibition potential of the compounds, recombinant human cytochrome P450 enzymes (CYP1A2, CYP2C9, CYP2C19, CYP2D6, and CYP3A4) and probe substrates were used with the fluorescent detection method. Incubations were conducted in 200-µL volume 96 well microtiter plates (COSTAR 3915). Addition of cofactor-buffer mixture (KH2PO4 buffer, 1.3 mM NADP+, 3.3 mM MgCl2, 3.3 mM Glucose-6-phosphate and 0.4 U/mL Glucose-6-phosphate Dehydrogenase), supersomes control, standard inhibitors (Furafyline, Tranylzypromine, Ketoconazole, Sulfaphenazole, and Quinidine; from Sigma Aldrich), and test compounds to plates were carried out using a a liquid handling station (Zephyr Caliper). The plate was then pre-incubated at 37 °C for 5 min, and the reaction initiated by the addition of pre-warmed enzyme/substrate (E/S) mix. […] Fluorescence per well was measured using a fluorescence plate reader (Tecan M1000 pro), and the percentage of inhibition was calculated.

Data set [2] addresses T2, CYP2C19 (Homo sapiens, UniProt P33261).
T2 construct: host or cells: insect cell microsomes
Nature of the data set: Cytochrome inhibition, fluorescent detection (CEC substrate). Conditions: recombinant human CYP2C19. As to the method: as §1

Data set [3] deals with T3, CYP1A2 (Homo sapiens, UniProt P05177).
T3 construct: host or cells: insect cell microsomes
T3 sequence (P05177 1-516): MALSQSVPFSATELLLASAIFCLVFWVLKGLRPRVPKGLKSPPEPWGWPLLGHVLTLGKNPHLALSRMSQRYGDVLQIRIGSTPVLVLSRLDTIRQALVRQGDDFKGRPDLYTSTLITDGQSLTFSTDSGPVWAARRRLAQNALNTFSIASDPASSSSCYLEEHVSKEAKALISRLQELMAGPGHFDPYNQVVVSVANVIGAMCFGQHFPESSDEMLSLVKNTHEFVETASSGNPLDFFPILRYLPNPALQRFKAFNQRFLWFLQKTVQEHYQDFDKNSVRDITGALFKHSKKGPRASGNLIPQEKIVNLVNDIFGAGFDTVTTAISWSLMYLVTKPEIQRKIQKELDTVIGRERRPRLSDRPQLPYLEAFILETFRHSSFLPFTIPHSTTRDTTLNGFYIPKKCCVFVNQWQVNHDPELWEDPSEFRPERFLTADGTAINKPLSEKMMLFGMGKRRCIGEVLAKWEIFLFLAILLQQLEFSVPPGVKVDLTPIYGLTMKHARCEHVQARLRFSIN
Described as above. The note with it: recombinant human CYP1A2. As to the method:
as §1

The nature of data set [4]: Microsomal stability in rat microsomes. The note with it: 37 °C, 0-60 min. As to the method:
The human, rat, and mice microsomes employed were purchased from Tebu-Xenotech. The compound was incubated at 37 °C with the microsomes in a 50 mM phosphate buffer (pH = 7.4) containing 30 mM MgCl2, 10 mM NADP, 100 mM glucose-6-phosphate and 20 U/mL glucose-6-phosphate-dehydrogenase. Samples (75 µL) were taken from each well at 0, 10, 20, 40, and 60 min and transferred to a plate containing 4 °C 75 µL acetonitrile. Then, 30 µL of 0.5% formic acid in water was added to improve the chromatographic conditions. The plate was centrifuged (46,000× g, 30 min) and supernatants were taken and analyzed in a UPLC-MS/MS (Xevo-TQD, Waters) by employing a BEH C18 column and an isocratic gradient of 0.1% formic acid in water: 0.1% formic acid acetonitrile (60:40) for 5 minutes and a flow of 0.25 mL/min. The metabolic stability of the compounds was calculated from the logarithm of remaining compounds at each time point studied.

T1 sequence (P08684 whole entry): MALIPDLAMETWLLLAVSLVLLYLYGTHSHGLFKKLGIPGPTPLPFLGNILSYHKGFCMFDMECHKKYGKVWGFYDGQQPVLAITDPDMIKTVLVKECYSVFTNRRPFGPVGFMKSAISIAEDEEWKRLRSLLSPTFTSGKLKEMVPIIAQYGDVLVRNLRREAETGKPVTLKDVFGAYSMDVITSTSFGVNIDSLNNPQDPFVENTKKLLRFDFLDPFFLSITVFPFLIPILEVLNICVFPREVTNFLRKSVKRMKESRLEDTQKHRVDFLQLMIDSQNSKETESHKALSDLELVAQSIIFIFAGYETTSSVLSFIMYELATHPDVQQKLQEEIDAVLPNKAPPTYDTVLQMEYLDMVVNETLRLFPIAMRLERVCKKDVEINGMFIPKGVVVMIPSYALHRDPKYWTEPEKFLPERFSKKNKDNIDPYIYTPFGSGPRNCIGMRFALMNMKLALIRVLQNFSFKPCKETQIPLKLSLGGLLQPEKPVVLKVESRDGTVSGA
T2 sequence (P33261 whole entry): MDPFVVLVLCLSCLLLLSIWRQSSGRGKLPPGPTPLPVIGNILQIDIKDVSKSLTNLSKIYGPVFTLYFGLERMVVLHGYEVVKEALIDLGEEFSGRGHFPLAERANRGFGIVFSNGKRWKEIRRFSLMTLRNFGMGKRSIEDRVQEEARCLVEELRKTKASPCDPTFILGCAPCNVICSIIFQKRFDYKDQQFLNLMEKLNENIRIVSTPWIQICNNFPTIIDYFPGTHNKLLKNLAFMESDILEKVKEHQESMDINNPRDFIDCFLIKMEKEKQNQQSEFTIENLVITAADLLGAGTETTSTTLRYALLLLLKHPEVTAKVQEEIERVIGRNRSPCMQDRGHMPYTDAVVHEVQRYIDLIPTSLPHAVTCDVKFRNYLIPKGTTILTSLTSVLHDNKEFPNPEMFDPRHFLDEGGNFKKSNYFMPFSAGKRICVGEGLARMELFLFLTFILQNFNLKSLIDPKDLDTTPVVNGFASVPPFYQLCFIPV

Consider `CC12CC3CC1(C)C1(C)CC3(CN)CC21C.Cl` [RL-208, (3,4,8,9-tetramethyltetracyclo [4.4.0.0^3,9.0^4,8]dec-1-yl)methylamine hydrochloride], for which the “CYP3A4 (BFC) inhibition” value in data set [1] (recombinant human CYP3A4, substrate BFC) stood at 35 ± 4%. In addition, in data set [1] (recombinant human CYP3A4, substrate DBF), the “CYP3A4 (DBF) inhibition” value was 3 ± 1%. Besides, the CYP2C19 inhibition in data set [2] worked out at 23 ± 1%. Also, the CYP1A2 inhibition in data set [3] turned out to be 5 ± 2%. Also, the microsomal stability entry in data set [4] was “good”.
